According to patent US12329801B2, “Regenerative polypeptides and uses thereof” (JUVENA THERAPEUTICS, INC., priority 2021, dated 2025):

Experiments:
[1] = tested on: human DM1 muscle precursors from person; assay: In vitro myogenesis assay, human DM1 muscle precursors; assay type: cell-based; settings: across a range of test article concentrations
Description: (§1) Human muscle progenitor cells (early passage myoblasts) were cultured and expanded in growth medium: Ham's F-10 (Gibco), 20% Bovine Growth Serum (Hyclone), 5 ng/mL FGF2 and 1% penicillin-streptomycin on Matrigel coated plates (1:300 matrigel: PBS), at 37° C. and 5% CO2. For experimental conditions, cells were plated at 40,000 cells/well on Matrigel coated 8-well chamber slides in 250-500 μL medium per well (1:100 matrigel: PBS) in human fusion medium: DMEM (Gibco)+2% horse serum (Hyclone). One hour after plating, human myoblasts were treated with 50% respective media: […] myoblasts were cultured for 24 hours in the above conditions, at 37° C. in 10% CO2 incubator. BrdU (300 uM) in DMSO was added for 2 hours prior to fixation with cold 70% ethanol and stored at 4° C. until staining.
(§2) Following permeabilization in PBS+0.25% t-Octylphenoxypolyethoxyethanol (Triton™ X-100), antigen retrieval was performed. Primary staining was performed with primary antibodies including: a species-specific monoclonal antibody for mouse anti-embryonic Myosin Heavy Chain (eMyHC, hybridoma clone 1.652, Developmental Studies Hybridoma Bank) and Rat-anti-BrdU (Abcam Inc. ab6326). […]

[2] = tested on: healthy human muscle precursors from person; assay: In vitro myogenesis assay, healthy human muscle precursors; assay type: cell-based
Description: as §1, §2

[3] = tested on: female C57/BL6 (NIA) mice (20 months of age); assay: Acute injury model (cardiotoxin in tibialis anterior); assay type: in vivo; settings: IM 0.4 ug/20 μL every other day, vs vehicle (HSA)
Description: The acute injury model of Example 18 was used. […] female C57/BL6 (NIA) mice (20 months of age) were injected intramuscularly (IM) in each tibialis anterior with cardiotoxin at day one (10 ug/20 μL) and from day two the mice were given IM injections every other day with 0.4 ug/20 μL of 6HIS-HSA-IGF2R61A (SEQ ID NO: 34) or vehicle (0.4 ug/20 μL of HSA).

[4] = Murine pharmacokinetics, intravenous, ELISA, non-compartment analysis; assay type: in vivo, mice; settings: mice
Description: Murine pharmacokinetics (PK) represents the absorption, distribution, metabolism, and elimination of drugs from the body. The pharmacokinetic profile of the therapeutic polypeptides were determined in mice (10-12 weeks old). Mice were fed ad libitum and housed under controlled conditions of lighting (12-hour light/12-hour dark) and temperature (22-24° C.). Mice were allowed to acclimate for 3 days prior to the initiation of the experiment. Intravenous (IV) injection in 10-12 weeks old mice. Engineered mitogenic polypeptides concentrations in the samples were measured by ELISA. Various pharmacokinetics will be calculated as well as the absorption/elimination dynamics following different routes of administration.

human myoblast cells = assay: Differentiation of human myoblast cells (MyHC immunostaining, percentage area); assay type: cell-based; settings: Fc4 fusions, 96 hours with daily media change, concentration not printed (FIG. 1B)
Description: (§3) FIG. 1A: The suspension CHO cells were transiently transfected with the IGF2-hFcm encoding plasmid. IGF2-hFcm was affinity-purified by Protein A membrane column. The purified IGF2-hFcm was added into the culture of human myoblast cells for 96 hours. Myosin heavy chain (MyHC) was immunostained and imaged by a fluorescence microscope.
as §3, with “1B:” for “1A:”, “IGF2-LhFc4” for “IGF2-hFcm”, “hours with daily media change.” for “hours.”
FIG. 2A: The suspension CHO cells were transiently transfected with the HSA-L-IGF2R61A encoding plasmid. HSA-L-IGF2R61A was affinity-purified by Protein A membrane column. […] Myosin heavy chain (MyHC) was immunostained and imaged by a fluorescence microscope.
Suspension CHO cells were transiently transfected with the IGF2-hFcm encoding plasmid. […] After quantification of the stained MyHC, the percentage area of MyHC was calculated as the percent of pixels within the field that are illuminated above background in the stained channel. […] Significance was determined by a p-value less than 0.05 by the one-way ANOVA Tukey Honest Significant Difference test.

DM1 human myoblast = assay: Myogenic gene expression fold change in DM1 human myoblast; assay type: cell-based; settings: 48 h; BMP7 50 ng/mL, Butyrate 100 nM, IGF2 200 ng/mL
Description: Myoblasts were cultured 48 h in the presence of factors (BMP7 50 ng/mL, Butyrate 100 nM, IGF2 200 ng/mL).
Myoblasts were cultured 96 h in the presence of factors (IGF2 200 ng/ml). […] Myoblasts were cultured 48 h in the presence of factors (IGF2 200 ng/mL).
IGF2 was tested individually for its ability to promote proliferation and/or fusion of human muscle progenitor cells from an individual with myotonic dystrophy type 1 (hMD)—a muscular dystrophy caused by mutations in the DMPK1 gene. The effect of IGF2 on myogenic activity was assayed in biological triplicate across a range of concentrations centered around expected physiological levels by adding each factor to hMD myoblasts for 72 hours with daily media changes (DMEM +2% horse serum) and a second pulse of factors at the first media change. After 72 or 96 hours, cells were pulsed for 2-5 hours with EdU (30 uM), ethanol fixed, stained with Hoescht 3342, immunostained for proliferation—as measured by the percent of cells staining positive for EdU (% EdU)-, and immunostained for differentiation—as measured by the increase in cellular area staining positive for embryonic myosin heavy chain (% eMyHC) relative to the negative controls, which received media and vehicle only. Wells were imaged on a Keyence BZ-100 at 4×, the images quantified in Cell Profiler, and the statistics were computed in R. Additionally, RNA was extracted from myoblast and select transcript abundances quantified by qPCR.

## HSA-IGF2R61A: His tagged HSA fusion IGF2 R61A mutant with a long linker, SEQ ID NO: 34
[1]
  activity relative to IGF2 at equimolar concentrations: equal activity
[2]; across a range of test article concentrations
  activity relative to IGF2 at equimolar concentrations: equal activity
[2]; before or after size exclusion purification via HPLC
  activity relative to HSA-IGF2 at equimolar concentrations: equal or increased activity
[3]
  force production (max contraction rate): increased force production
  force production (specific force-frequency): increased force production
  muscle fatigue (specific fatigue index): reduced muscle fatigue
  muscle mass: increased muscle mass
  regenerative index (number of new fibers per square millimeter): increased regenerative index
  relation rates: improved relation rates
[4]
  serum half-life compared to the natural sequence of IGF2: significantly improved serum half-life

## IGF2-hFc4: Human IGF2-hFc4, SEQ ID NO: 39
Human myoblast cells
  % MyHC: 6.901%

## CCCC(=O)[O-].[Na+] [NaBut, sodium butyrate]
DM1 human myoblast
  MYF5 expression fold change compared to FM (vehicle): 1.128
  MYOD1 expression fold change compared to FM (vehicle): 1.095
  MYOG expression fold change compared to FM (vehicle): 1.020
